Source: patent publication US20160082105A1, “Antibody Buffering of a Ligand in Vivo” (ARROWSMITH TECHNOLOGIES CORPORATION, priority 2004, published 2016)
Read-outs that look alike come from different tables or passages of the source.

How the values were obtained:
[1] = Excerpt: Male Sprague-Dawley rats (300 g) were obtained from Zivic Laboratories, Inc. (Zelienople, Pa.). Each rat underwent surgery to place a cannula in the right lateral ventricle for injections and a second cannula in the cisterna magna for cerebral spinal fluid (CSF) sampling. Briefly, the rat was anesthetized with 2.5% isoflurane and fixed in a stereotaxic device. Normal body temperature was maintained through a heating pad. A linear midline incision exposed the frontal, parietal, and occipital bones. The lateral ventricle was located using the coordinates (1.8 mm posterior, 3.8 mm lateral, and 4 mm ventral from bregma) obtained from a stereotaxic atlas of the rat (Paxinos et al. The Rat Brain in Stereotaxic Coordinates (Academic Press 1998)). A hole was drilled through the skull, a cannula was inserted, and it was fixed to the skull using VetBond (3M, Minneapolis, Minn.) and dental cement. […] The cannula was inserted to a depth of 2 mm below the bottom of the skull and fixed with VetBond and dental cement. Screw-capped cannula dummy wires were inserted into the cannula guides to maintain a closed system. Rats were allowed to recover for at least 24 hours before ventricular injection.
For experiments for which injections and withdrawals of CSF were done via the same site in the cisterna magna (CM), male Sprague-Dawley rats (250 g) were obtained from Charles River Laboratories (Wilmington, Mass.). […] Rats were allowed to rest no more than three days after arrival prior to experimentation to reduce the risk of cannula blockage.
(§1) Samples were prepared for injection: 104 pmol anti-Ox antibody and 52 pmol Ox; 104 pmol of D1.3 control antibody and 52 pmol Ox; and 52 pmol Ox alone. Each sample was diluted to 10 μl with sterile PBS. The samples were warmed to 37° C., and then infused over 1 minute through the intraventricular or cisternal cannula in Sprague-Dawley rats. The end of the infusion was designated as time zero (0). At various timepoints, 10 μl of CSF was withdrawn. For one set of rats, the 10 μl CSF was counted directly by placing it into 5 ml of Scintiverse II and counting in a Beckman LS6500 Scintillation Counter. For another set of rats, the 10 μl CSF was diluted into 100 μl ice cold PBS and used in bound vs. free Ox experiments described below.
(§2) Samples of NQ11/7.12 and Ox were prepared and infused into the cisternal cannula of Sprague-Dawley rats from Charles River Laboratories as described above for the antibody buffering protocol. Ten μl of CSF was taken from the cisterna magna at time 1, 10, 20, 30, 60, 90 and 120 minutes. The 10 μl CSF samples were either counted directly or diluted into 100 μl ice cold PBS and loaded onto a 187.1 column to separate bound and free Ox. At 24 hours and at 48 hours following the first administration, 52 pmol Ox in 10 μl total volume (diluted with sterile PBS) was infused over 1 minute through the cisterna magna cannula. Timepoints were again taken and analyzed as above.
To determine the pharmacokinetic behavior of Ox in the CSF, tritiated Ox was infused into a rat through its intraventricular cannula, and elimination of Ox was followed through CSF sampling from the cisterna magna (CM) cannula. Sampling was done from the cisterna magna because it is the largest CSF compartment. Its location between the cerebellum and the upper brain stem and its large size make it relatively easy to access CSF for sampling and scintillation counting (van den Berg et al., J. Neurosci. Methods 116:99-107 (2002)).

[2] = remark: listed apart in the source
Description: as §1
The rat anti-mouse kappa antibody 187.1 (obtained from American Type Culture Collection (ATCC), Manassas, Va.) (Yelton et al., Hybridoma 1:5-11 (1981)) was isolated from spent culture medium and purified by passage over a Protein A-Sepharose affinity column. Ten grams of CNBr-activated Sepharose 4 Fast Flow (Amersham Biosciences) were washed and coupled with 187.1 according to manufacturer's protocol. Two mg 187.1 per 10 g of swelled resin were used.
During the antibody buffering experiments, the CSF plus ice cold PBS sample were loaded onto the 187.1 column immediately after the dilution. Application to the column of 3 ml of PBS in 0.5 ml increments was followed by application of 3 ml of 0.2 M glycine (pH 2.5) in 0.5 ml increments. All the PBS fractions and all the glycine fractions were collected separately for each timepoint and dried down in the SpeedVac. The residue was resuspended in 150 μl PBS and then transferred to a scintillation vial with 5 ml Scintiverse II for counting.
as §2
The principle of chemical equilibrium predicts that the Ox in the CSF should partition between free and antibody-bound forms, and that the free pool should be constantly replenished, staying at a concentration near the antibody's Kd. The Ox in the CSF samples from another set of rats was separated into bound and free forms by passage over an affinity column. […] Antibody-Ox complexes bound to the immobilized rat anti-mouse kappa antibody while free Ox eluted from the column with the PBS wash (free Ox fraction).

[3] = Ox alone re-administered at 24 hours and 48 hours after a single NQ11/7.12 + Ox cisternal infusion
[4] = Ox administered alone or with D1.3

## O=C(O)CCCNC=C1N=C(c2ccccc2)OC1=O [Ox, 2-phenyl-oxazol-5-one-γ-amino butyrate]
[1]; Ox alone (no NQ11/7.12), intraventricular infusion, cisternal CSF sampling
  Ox elimination half-life from the cisterna magna: 1.2 min
[1]; [3]
  total Ox pharmacokinetic lifetime in CSF, long term buffering: kinetic profile between the profile observed when Ox was initially administered with NQ11/7.12 and the profile of Ox when administered with D1.3
[1]; Ox co-administered with control antibody D1.3, cisternal infusion
  Ox elimination half-life from CSF: 1.0 min
[1]; Ox co-administered with twice the molar amount of NQ11/7.12, cisternal infusion
  Ox elimination half-life from CSF: 10 min
[1]; Ox with twice the molar amount of NQ11/7.12, intraventricular infusion
  time of peak Ox concentration in the cisterna magna: around 5 minutes
[1]; Ox without antibody buffer, intraventricular infusion
  peak Ox concentration in the cisterna magna: never attained a peak concentration
[1]; cisternal infusion
  increase in Ox half-life in CSF, NQ11/7.12 vs D1.3: ten-fold
[2]; [4]
  decrease of free Ox concentration in CSF in an hour: 500 fold
  free Ox elimination half-life in CSF: 0.61 min
  initial free Ox concentration in CSF: 1.4 mM
[2]; Ox administered with NQ11/7.12
  decrease of free Ox concentration in CSF over time: less than 10 fold
  free Ox concentration in CSF after the decrease: approximately 6 nM
  free Ox elimination half-life in CSF: 1.55 min
  initial free Ox concentration in CSF: 6e-05 mM
[2]; [3]
  free Ox elimination in CSF, long term buffering: slower elimination profile than Ox administered with D1.3
